Experimental data: the NIST ThermoML archive (doi:10.1021/je060271a)

Details: 323.15 K, Liquid, Vibrating tube method

CCCCCCC(=O)OCC(COC(=O)CCCCCC)(COC(=O)CCCCCC)COC(=O)CCCCCC [pentaerythritol tetraheptanoate]
Details | mass density [kg/m3]
102 kPa | 955.7
102.5 kPa | 955.6
102.8 kPa | 955.6
103.5 kPa | 955.7
104.8 kPa | 955.6
106.8 kPa | 955.7
109.1 kPa | 955.7
113.5 kPa | 955.6
119 kPa | 955.5
127.2 kPa | 955.7
130.7 kPa | 955.6
133.3 kPa | 955.7
136.2 kPa | 955.6
136.9 kPa | 955.6
138 kPa | 955.7
138.5 kPa | 955.6
139.2 kPa | 955.7
139.5 kPa | 955.6
140.6 kPa | 955.6
144.4 kPa | 955.7
144.9 kPa | 955.7
145.8 kPa | 955.6
147.5 kPa | 955.7
152.7 kPa | 955.6
153.6 kPa | 955.7
154.3 kPa | 955.6
155.5 kPa | 955.8
156.6 kPa | 955.8
157.4 kPa | 955.7
158.7 kPa | 955.7
159.7 kPa | 955.7
161.8 kPa | 955.7
163.2 kPa | 955.6
164.2 kPa | 955.7
165.3 kPa | 955.8
166.8 kPa | 955.6
168 kPa | 955.8
169.3 kPa | 955.7
170.8 kPa | 955.7
172 kPa | 955.6
173.3 kPa | 955.7
175 kPa | 955.8
176.4 kPa | 955.7
177.9 kPa | 955.7
179.7 kPa | 955.6
181.2 kPa | 955.7
182.8 kPa | 955.8
184.6 kPa | 955.9
186.5 kPa | 955.7
188 kPa | 955.7
190.1 kPa | 955.7
193.9 kPa | 955.7
196.2 kPa | 955.6
241.4 kPa | 955.7
245.4 kPa | 955.7
265.6 kPa | 955.7
319.3 kPa | 955.8
340.6 kPa | 955.9
347.8 kPa | 955.9
364.8 kPa | 955.8
373.5 kPa | 955.8
449.4 kPa | 955.8
461.8 kPa | 955.9
492.2 kPa | 955.9
510.3 kPa | 955.9
526.4 kPa | 955.8
543.6 kPa | 956
565.9 kPa | 955.9
711.1 kPa | 955.8
779.6 kPa | 956.2
814.3 kPa | 956.1
1089.1 kPa | 956.3
1094 kPa | 956.3
1098.2 kPa | 956.3
1102.3 kPa | 956.3
1107 kPa | 956.4
1111.5 kPa | 956.4
1115.9 kPa | 956.4
1120.4 kPa | 956.4
1125.8 kPa | 956.5
1130.3 kPa | 956.4
1134.8 kPa | 956.4
1139 kPa | 956.5
1144.5 kPa | 956.3
1149 kPa | 956.4
1153.9 kPa | 956.4
1159.3 kPa | 956.3
1168.5 kPa | 956.5
1178.6 kPa | 956.4
1183.8 kPa | 956.5
1189 kPa | 956.4
1195.1 kPa | 956.5
1199.8 kPa | 956.4
1204.6 kPa | 956.4
1209.5 kPa | 956.5
1220.6 kPa | 956.5
1225.4 kPa | 956.4
1231.5 kPa | 956.5
1236.9 kPa | 956.4
1242.6 kPa | 956.5
1253.4 kPa | 956.3
1258.4 kPa | 956.6
1263.5 kPa | 956.3
1275.6 kPa | 956.5
1281.2 kPa | 956.4
1286.7 kPa | 956.4
1293.2 kPa | 956.5
1298.9 kPa | 956.4
1304.6 kPa | 956.7
1311.6 kPa | 956.5
1317.3 kPa | 956.6
1323 kPa | 956.5
1328.9 kPa | 956.5
1421.1 kPa | 956.7
1427.4 kPa | 956.6
1434.2 kPa | 956.7
1442 kPa | 956.6
1448.9 kPa | 956.6
1457.1 kPa | 956.6
1463.5 kPa | 956.7
1470.3 kPa | 956.7
1477.4 kPa | 956.6
1485.6 kPa | 956.6
1492.5 kPa | 956.6
1499.8 kPa | 956.7
1507.4 kPa | 956.7
1523.2 kPa | 956.6
1619.7 kPa | 956.8
1629.6 kPa | 956.7
1719.4 kPa | 956.9
1728.2 kPa | 956.8
1736.9 kPa | 956.8
1745.9 kPa | 956.8
1775.6 kPa | 956.9
2116.8 kPa | 957.1
2152.2 kPa | 957.1
2381.2 kPa | 957.2
2470.4 kPa | 957.3
2492.4 kPa | 957.2
2508.4 kPa | 957.3
2527.1 kPa | 957.3
2559.7 kPa | 957.3
3115.5 kPa | 957.7
3137.8 kPa | 957.7
3159 kPa | 957.8
3207.3 kPa | 957.8
3229.7 kPa | 957.7
3644.1 kPa | 958
3670.9 kPa | 958.1
3703.5 kPa | 958.2
3731.4 kPa | 958.2
3759.3 kPa | 958.1
3792.9 kPa | 958.3
3822.5 kPa | 958.2
3850.4 kPa | 958.2
3884.5 kPa | 958.2
3913.6 kPa | 958.2
3943.3 kPa | 958.4
4059.8 kPa | 958.5
4061.6 kPa | 958.4
4063.3 kPa | 958.4
8709 kPa | 961.5
8730.4 kPa | 961.5
8752.3 kPa | 961.6
8778.6 kPa | 961.5
8802.6 kPa | 961.5
8824.6 kPa | 961.6
8846.3 kPa | 961.7
8868.4 kPa | 961.6
8895.1 kPa | 961.7
8917.5 kPa | 961.5
8944.2 kPa | 961.7
8967 kPa | 961.7
8990.1 kPa | 961.6
9017.1 kPa | 961.7
9040.1 kPa | 961.7
9063.7 kPa | 961.7
9091.6 kPa | 961.8
9116.3 kPa | 961.8
9139.9 kPa | 961.8
9164 kPa | 961.8
9192.5 kPa | 961.9
9216.2 kPa | 961.8
9269.5 kPa | 962
9293.8 kPa | 961.9
9318.4 kPa | 962
9348.8 kPa | 961.9
9373.9 kPa | 961.9
9399.6 kPa | 962
9431.8 kPa | 962.1
9459.4 kPa | 962.1
9492.7 kPa | 962.1
9518.2 kPa | 962
9535.7 kPa | 962
9548.7 kPa | 962.2
9563.6 kPa | 962.2
9576.4 kPa | 962.1
9591.9 kPa | 962.1
9617.9 kPa | 962
9633.3 kPa | 961.9
9646.7 kPa | 962.2
9660.3 kPa | 962.1
9673.6 kPa | 962.1
9689.4 kPa | 962.3
9702.7 kPa | 962.2
9716.1 kPa | 962.2
9732.2 kPa | 962.1
9788.5 kPa | 962.2
9802.3 kPa | 962.3
9818.5 kPa | 962.2
9832.1 kPa | 962.3
9845.9 kPa | 962.3
9862.6 kPa | 962.3
9876.5 kPa | 962.3
9890.5 kPa | 962.4
9906.8 kPa | 962.3
9920.8 kPa | 962.3
9951.3 kPa | 962.3
10010 kPa | 962.4
10071 kPa | 962.3
10088 kPa | 962.5
10103 kPa | 962.5
10117 kPa | 962.4
